≈ marks a conversion by molar mass, not a printed value. Bounds are passed on as bounds.

The subject of series [1] is HepG2. The experiment in a line: Antiproliferative activity against human HepG2 cells incubated for 2 days by MTT assay. The series is classed as functional, cell-based. To be noted: HepG2, 48 h.
Series [2] relates to MCF7. In words: Antiproliferative activity against human MCF7 cells incubated for 2 days by MTT assay. The series is classed as functional, cell-based. To be noted: MCF7, 48 h. On the technique in general: Tetrazolium assays rely on reduction of a dye to a coloured formazan, in cell work by metabolically active cells.
Series [3] deals with HT-29. In words: Antiproliferative activity against human HT-29 cells incubated for 2 days by MTT assay. The series is classed as functional, cell-based. To be noted: HT-29, 48 h.
In another series the test system is T47D. The experiment in a line: Antiproliferative activity against human T47D cells incubated for 2 days by MTT assay. The format is functional, cell-based. To be noted: 48 h.
A further series concerns HFF. The experiment in a line: Antiproliferative activity against human HFF cells incubated for 2 days by MTT assay. The format is functional, cell-based. To be noted: 48 h.
Series [4] concerns MCF7. In words: Anticancer activity against human MCF7 cells assessed as reduction in cell viability. The series is classed as functional, cell-based.
Series [5] concerns HepG2. The experiment in a line: Anticancer activity against human HepG2 cells assessed as reduction in cell viability. The format is functional, cell-based.
Series [6] in a line: Cytotoxicity against green monkey Vero cells. The series is classed as toxicity, cell-based. To be noted: green monkey (Chlorocebus sabaeus).
Series [7] has as its system HeLa. The experiment in a line: Cytotoxicity against human HeLa cells. The format is functional, cell-based.
Series [8] has as its system MDA-MB-231. The experiment in a line: Antiproliferative activity against human MDA-MB-231 cells. The format is functional, cell-based.
Series [9] has as its system HeLa. The experiment in a line: Antiproliferative activity against human HeLa cells. The series is classed as functional, cell-based.
The subject of series [10] is A549. The experiment in a line: Antiproliferative activity against human A549 cells assessed as reduction in cell viability. The series is classed as functional, cell-based.
In series [11] the test system is MCF7. In words: Antiproliferative activity against human MCF7 cells assessed as reduction in cell viability. The series is classed as functional, cell-based.
Series [12] relates to MCF7. The experiment in a line: Anticancer activity against human MCF7 cells incubated for 48 hrs by MTT assay. The series is classed as functional, cell-based. To be noted: MCF7, 48 h.
Series [13] deals with A549. The experiment in a line: Anticancer activity against human A549 cells incubated for 48 hrs by MTT assay. The format is functional, cell-based. To be noted: A549, 48 h.
Series [14] relates to HepG2. The experiment in a line: Anticancer activity against human HepG2 cells incubated for 48 hrs by MTT assay. The series is classed as functional, cell-based. To be noted: HepG2, 48 h.
For series [15], the system named is HCT-116. The experiment in a line: Anticancer activity against human HCT-116 cells incubated for 48 hrs by MTT assay. The series is classed as functional, cell-based. To be noted: HCT-116, 48 h.
A short description of series [16]: Anticancer activity against human U87 cells incubated for 48 hrs by MTT assay. The format is functional, cell-based, U-87MG ATCC. To be noted: U-87 MG.
Series [17] relates to Panel NCI-60 (60 carcinoma cell lines). The experiment in a line: Growth inhibition of human Panel NCI-60 (60 carcinoma cell lines) cells. The series is classed as functional.
A short description of series [18]: Anticancer activity against human Panel (56 tumour cell lines) at 10 uM relative to control. The format is functional.
Another series has as its system Caco-2. The experiment in a line: Antiproliferative activity against human Caco-2 cells incubated for 72 hrs by MTT assay. The series is classed as functional, cell-based. To be noted: Caco-2, 72 h.
Series [19] deals with HCT-116. The experiment in a line: Antiproliferative activity against human HCT-116 cells incubated for 72 hrs by MTT assay. The series is classed as functional, cell-based. To be noted: HCT-116, 72 h.
In another series the test system is Jurkat. The experiment in a line: Antiproliferative activity against human Jurkat cells incubated for 72 hrs by MTT assay. The series is classed as functional, cell-based.
The test system of series [20] is MCF7. In words: Antiproliferative activity against human MCF7 cells incubated for 72 hrs by MTT assay. The series is classed as functional, cell-based. To be noted: MCF7, 72 h.
In series [21] the test system is MDA-MB-231. The experiment in a line: Antiproliferative activity against human MDA-MB-231 cells incubated for 72 hrs by MTT assay. The format is functional, cell-based. To be noted: MDA-MB-231, 72 h.
In series [22] the test system is HeLa. The experiment in a line: Antiproliferative activity against human HeLa cells incubated for 72 hrs by MTT assay. The format is functional, cell-based.
Another series deals with CCRF-CEM. The experiment in a line: Antiproliferative activity against human CEM cells incubated for 72 hrs by MTT assay. The format is functional, cell-based.
Series [23] relates to A549. The experiment in a line: Antiproliferative activity against human A549 cells incubated for 72 hrs by MTT assay. The series is classed as functional, cell-based. To be noted: A549, 72 h.
Series [24] relates to A549. The experiment in a line: Antiproliferative activity against human A549 cells. The series is classed as functional, cell-based.
The subject of series [25] is MCF7. In words: Antiproliferative activity against human MCF7 cells. The format is functional, cell-based.
Series [26] has as its system MCF7. In words: Antiproliferative activity against human MCF7 cells by MTT assay. The series is classed as functional, cell-based.
Series [27] has as its system MDA-MB-231. The experiment in a line: Antiproliferative activity against human MDA-MB-231 cells assessed as inhibition of cell viability by MTT assay. The series is classed as functional, cell-based.
The test system of series [28] is MCF7. The experiment in a line: Cytotoxicity against human MCF7 cells assessed as reduction in cell growth. The format is functional, cell-based.
The next series concerns WI-38. In words: Cytotoxicity against human WI-38 cells assessed as reduction in cell growth. The format is functional, cell-based.
For series [29], the system named is MCF7. The experiment in a line: Antiproliferative activity against human MCF7 cells assessed as inhibition of cell growth. The format is functional, cell-based.
Another series concerns A2780. In words: Antiproliferative activity against human A2780 cells assessed as inhibition of cell growth. The series is classed as functional, cell-based.
Series [30] concerns HT-29. In words: Antiproliferative activity against human HT-29 cells assessed as inhibition of cell growth. The series is classed as functional, cell-based.
The test system of another series is K562. The experiment in a line: Antiproliferative activity against human K562 cells measured upto 72 hrs by microscopy based analysis. To be noted: K562, 72 h. The format is functional, cell-based.
The test system of a further series is U-937. The experiment in a line: Antiproliferative activity against human U-937 cells measured upto 72 hrs by microscopy based analysis. The series is classed as functional, cell-based. To be noted: U-937, 72 h.
The subject of series [31] is MDA-MB-231. In words: Cytotoxicity against human MDA-MB-231 cells at 50 ug/ml relative to control. The series is classed as functional. To be noted: dose 50 µg/ml.
Another series has as its system L929. The experiment in a line: Cytotoxicity against mouse L929 cells at 50 ug/ml relative to control. The format is toxicity, cell-based. To be noted: at 50 µg/mL.

As to `COc1cc(C2=NOC3(Cc4ccccc4C3=O)C2c2ccc(S(C)(=O)=O)cc2)cc(OC)c1OC` (configuration not stated), the IC50 (as a rule, the point on the concentration scale where inhibition reaches its midpoint) was found to be 0.086 µM in the series on HepG2 [1]; 24.2 µM in the series on MCF7 [2]; 69.3 µM in the series with HT-29 [3]; 0.07 µM in the series on T47D; 2.32 µM with HFF.

With `N#Cc1c(-c2ccc(Cl)cc2)c2c(n(CC(=O)O)c1=O)N(c1ccc(N)cc1)C1(CCCCC1)S2`, the IC50 in the series with MCF7 [4] is 12.6 µg/mL (≈ 24.9 µM); in the series on HepG2 [5], 9.29 µg/mL (≈ 18.3 µM).

Consider `O=C(c1ccccn1)[C@@H]1[C@@H](c2ccccc2Cl)[C@H](c2ccccc2)NC12C(=O)Nc1ccccc12` (some centres not stated), for which the IC50 in series [6] is over 110 µg/mL; with HeLa [7] it was 70 µg/mL (≈ 146 µM).

Regarding `O=C1C=CC2(C=C1Br)OCC(=O)N2c1nc(-c2cccc(Cl)c2)nn1-c1ccccc1` (configuration not stated), the IC50 in the series on MDA-MB-231 [8] amounted to 0.0008 µM; in the series with HeLa [9] it was 0.0453 µM; with A549 [10] it was 0.0252 µM; with MCF7 [11], 0.00411 µM.

For `CCOC(=O)[C@H]1[C@@H](NO)[C@@H]2c3ccccc3OC(C)(C)[C@H]2[C@H](O)[C@]12C(=O)Nc1ccc(Cl)cc12`, the IC50 in the series on MCF7 [12] was 1.7 µM; in the series with A549 [13] it was 5.9 µM; in the series on HepG2 [14], 18.4 µM; in the series with HCT-116 [15] it was 13 µM; in series [16], 37.5 µM.

For the molecule `COC1=CC2OC34Oc5cc(OC)ccc5C=C3CCCC4C=C2C=C1` (configuration not stated), the GI50 – broadly, the concentration that inhibits growth by half – in series [17] is under 19 µM.

As for `CC(C)(C)OC(=O)N1CCC2(CC1)NC(=O)c1ccccc1N2`, the inhibition (commonly the relative decrease from the control value, in per cent) at 10 µM in series [18] stood at 100%.

On to `COc1ccc(-n2nc(-c3ccccc3)nc2N2C(=O)COC23C=CC(=O)C=C3)cc1`, for which the IC50 is 0.0277 µM with MDA-MB-231 [8], 0.01 µM with HeLa [9], 0.0268 µM in the series on A549 [10] and 0.0888 µM in the series with MCF7 [11].

As to `CON1c2ccccc2[C@@]2(CN=C(Nc3cc(C(F)(F)F)cc(C(F)(F)F)c3)S2)[C@H]1Nc1cc(C(F)(F)F)cc(C(F)(F)F)c1`, the IC50 turned out to be 19.7 µM in the series with Caco-2; 43.9 µM with HCT-116 [19]; 2 µM in the series on Jurkat; 2 µM with MCF7 [20]; 3.5 µM with MDA-MB-231 [21]; 2.5 µM in the series on HeLa [22]. Also, the IC50 in the series with CCRF-CEM was found to be 1 µM; with A549 [23], 2.5 µM.

For `O=C(c1ccccn1)[C@@H]1[C@@H](c2ccc(Cl)cc2Cl)[C@H](c2ccccc2)NC12C(=O)Nc1ccccc12` (some centres not stated), the IC50 in series [6] was 17 µg/mL (≈ 33 µM); in the series with HeLa [7], 16 µg/mL (≈ 31.1 µM).

As to `CCOC(=O)[C@H]1[C@@H](NO)[C@@H]2c3ccccc3OC(C)(C)[C@H]2[C@H](O)[C@]12C(=O)Nc1ccc(F)cc12`, the IC50 in the series on MCF7 [12] was determined as 2.5 µM; in the series on A549 [13] it was 4.8 µM; in the series on HepG2 [14], 16.2 µM; with HCT-116 [15], 25.4 µM; in series [16], 41.9 µM.

Consider `CCC(C)N1C(=O)C2(C(C#N)=C(N)Oc3c2c(=O)oc2ccccc32)c2ccccc21` (configuration not stated), for which the IC50 is 34.1 µM in the series with A549 [24] and 37.6 µM in the series on MCF7 [25].

For the molecule `Clc1cccc(Cl)c1C1=NO[C@@]2(CCCCO2)[C@H]1Br`, the IC50 in the series on MCF7 [26] amounted to 52.4 µM; in the series with MDA-MB-231 [27], 43.1 µM.

Take `CN1N=C(c2ccc(Cl)c(Cl)c2)C2C(CSC23CCCN3CCOCC(=O)NN)C1=O` (configuration not stated): the values for the IC50 in the series with MCF7 [28] and in the series with WI-38 were 7.72 µM and 10.4 µM, respectively.

Regarding `O=C1CC2(CCN(S(=O)(=O)c3ccccc3)CC2)Oc2ccccc21`, the values for the IC50 with MCF7 [29], in the series on A2780 and with HT-29 [30] were 5.62 µM, 0.31 µM and 0.47 µM, respectively.

Regarding `O=C1CC(c2ccccc2)C2(C(=O)Oc3ccccc3C2=O)C(c2ccccc2)C1` (configuration not stated), the results for the IC50 in the series on K562 and in the series on U-937 were 74 µM and 51.6 µM, respectively.

Consider `CN1CCN(Cc2ccc([N+](=O)[O-])cc2)P12=NP(N1CCCCC1)(N1CCCCC1)=NP(N1CCCCC1)(N1CCCCC1)=N2` (configuration not stated), for which the Activity was found to be 30% in the series with MDA-MB-231 [31] and 70% with L929.

The values are drawn from ChEMBL document CHEMBL5233269, “Anticancer potential of spirocompounds in medicinal chemistry: A pentennial expedition” (Eur J Med Chem, 2021).
